Measurements as given in patent US5134142A, “Pyrazole derivatives, and pharmaceutical composition comprising the same” (Fujisawa Pharmaceutical Co., Ltd., priority 1989, dated 1992).
pIC50: −log10 of the molar value.

Experiments:
[1] = system: collagen induced arthritis in mice; assay: Effect on collagen induced arthritis in mice (anti-rheumatic activity); format: in vivo, male DBA/1 mice; details: 10 mg/kg, orally once a day for 3 weeks from 10 day after challenge
Experimental: Effect on collagen induced arthritis in mice : (i) Test Method : Eight male DBA/1 mice were used per group. Type II bovine collagen was solublized in 0.1M acetic acid and emulsified in complete Freund's adjuvant (CFA . Mice were primed with 0.2 mg of Type II collagen in CFA intradermally at the base of the tail. Mice were challenged after 21 day with the same procedure. From 10 day after challenge, drug was administered orally once a day for 3 weeks and mice were inspected weekly for visual signs of arthritis. An arthritis index was used to grade limb 0-3, representing joint swelling and erythema (Grade 1), visible joint disorder (Grade 2 and detectable joint ankylosis (Grade 3).

[2] = system: adjuvant arthritis in rats; assay: Effect on adjuvant arthritis in rats (antiinflammatory activity); format: in vivo, female Sprague-Dawley rats; details: Rattus norvegicus, po, 552 h, orally once a day for 23 days, read-out: Inhibition of secondary lesion (uninjected paw)
[3] = system: platelet aggregation induced by collagen; assay: Effect on platelet aggregation induced by collagen (antithrombotic activity); format: cell-based; details: human platelet rich plasma, collagen 0.5 μg/ml, 37° C
Experimental: Effect on platelet aggregation induced by collagen :
Platelet rich plasma (PRP) which contains 3×10^8 platelets/ml was prepared from human blood. To the 245 μl of PRP, 5 μl of drug solution* was added, and then stirred for 2 min at 37° C. To the solution 5 μl of collagen (0.5 μg/ml) was added as an aggregation inducer. Aggregation was measured by using an aggregometer (NKK HEMA-TRACER 1). Activities of inhibitors (test compounds) were expressed as IC50 values i.e. doses required to inhibit the platelet aggregation responses by 50%.
Drug solution* - - - Test compounds were dissolved in dimethylsulfoxide.

[4] = system: Delayed Type Hypersensitivity (DTH) response to bovine type II collagen; assay: Effect on Delayed Type Hypersensitivity (DTH) response to bovine type II collagen; format: in vivo, male DBA/1 mice; details: oral, 24 hours after challenge, mice
[5] = system: inflammatory hyperalgesia induced by brewer's yeast in rats; assay: Inflammatory hyperalgesia induced by brewer's yeast in rats (analgesic activity); format: in vivo, male Sprague Dawley rats; details: oral, pain threshold 3 hours after yeast injection
Experimental: Inflammatory hyperalgesia induced by brewer's yeast in rats : (i) Test Method : Ten male Sprague Dawley rats were used per group. 0.1 ml of 5% brewer's yeast suspended in 0.5% methylcellulose was injected into the right hind paw. The pain threshold was determined 3 hours after yeast injection, by applying pressure to the foot and reading the pressure at which the rat withdrew the foot. The drugs were given orally 2 hours after yeast injection. The pain threshold in the treated animals was compared with that in the control animals.

C[S+]([O-])c1ccc(-c2cc(C#N)nn2-c2ccc(F)cc2F)cc1 (centres unmarked) [33-2), 1-(2,4-Difluorophenyl)-5-[4-(methylsulfinyl)phenyl]pyrazole-3-carbonitrile]
Inhibition of arthritis index [1]: 92.4%
inhibition in vivo at 3.2 mg/kg [2]: 87.1%

CNc1ccc(-n2nc(C(F)(F)F)cc2-c2ccc(S(C)(=O)=O)cc2)cc1.Cl [45-8), 1-[4-(Methylamino)phenyl]-5-[4-(methylsulfonyl)-phenyl]-3-(trifluoromethyl)pyrazole hydrochloride]
Inhibition of arthritis index [1]: 83.5%
inhibition in vivo at 3.2 mg/kg [2]: 80.8%

CS(=O)(=O)c1ccc(-c2cc(C#N)nn2-c2ccc(F)cc2)cc1 [Example 6, 1-(4-fluorophenyl)-5-[4-(methylsulfonyl)phenyl]pyrazole-3-carbonitrile]
pIC50 [3]: 5.28
per cent inhibition of DTH response compared with vehicle control ([4]; 0.32 mg/kg): 53.4%
per cent inhibition of DTH response compared with vehicle control ([4]; 1.0 mg/kg): 61.5%
per cent inhibition of DTH response compared with vehicle control ([4]; 3.2 mg/kg): 74.3%
Relative potency (Control = 1.0) ([5]; 32 mg/kg): 1.34
Inhibition of arthritis index [1]: 78.6%
inhibition in vivo at 10 mg/kg [2]: 95.6%

CS(=O)(=O)c1ccc(-c2cc(C(F)(F)F)nn2-c2ccc(F)cc2)cc1 [11-3), 1-(4-Fluorophenyl)-5-[4-(methylsulfonyl)phenyl]-3-(trifluoromethyl)pyrazole]
Relative potency (Control = 1.0) ([5]; 32 mg/kg): 1.35
Inhibition of arthritis index [1]: 91.7%
inhibition in vivo at 10 mg/kg [2]: 100%

CC(C)Cc1ccc(C(C)C(=O)O)cc1 (centres unmarked) [Ibuprofen, reference compound]
inhibition in vivo at 10 mg/kg [2]: 24.7%

CCNc1ccc(-n2nc(C#N)cc2-c2ccc(S(C)(=O)=O)cc2)cc1 [37-2), 1-[4-(Ethylamino)phenyl]-5-[4-(methylsulfonyl)phenyl]pyrazole-3-carbonitrile]
inhibition in vivo at 3.2 mg/kg [2]: 81.7%

CS(=O)(=O)Nc1ccc(-n2nc(C#N)cc2-c2ccc(S(C)(=O)=O)cc2)cc1 [Example 36]
inhibition in vivo at 3.2 mg/kg [2]: 84.2%

C[S+]([O-])c1ccc(-c2cc(C#N)nn2-c2ccc(F)cc2)cc1 (centres unmarked) [Example 24, 1-(4-fluorophenyl)-5-[4-(methylsulfinyl)phenyl]pyrazole-3-carbonitrile]
per cent inhibition of DTH response compared with vehicle control ([4]; 0.32 mg/kg): 45.9%
per cent inhibition of DTH response compared with vehicle control ([4]; 1.0 mg/kg): 66.9%
per cent inhibition of DTH response compared with vehicle control ([4]; 3.2 mg/kg): 75.7%
Relative potency (Control = 1.0) ([5]; 10 mg/kg): 1.44
Inhibition of arthritis index [1]: 90.5%
inhibition in vivo at 3.2 mg/kg [2]: 80.6%

CS(=O)(=O)c1ccc(-c2ccnn2-c2ccc(F)cc2)cc1 [17-1), 1-(4-Fluorophenyl)-5-[4-(methylsulfonyl)phenyl]pyrazole]
inhibition in vivo at 3.2 mg/kg [2]: 80.6%

CS(=O)(=O)c1ccc(-c2cc(C#N)nn2-c2ccc(F)cc2F)cc1 [15-6), 1-(2,4-Difluorophenyl)-5-[4-(methylsulfonyl)phenyl]pyrazole-3-carbonitrile]
Inhibition of arthritis index [1]: 98.9%
inhibition in vivo at 3.2 mg/kg [2]: 94.3%

CSc1ccc(-c2cc(C#N)nn2-c2ccc(F)cc2)cc1 [15-2), 1-(4-Fluorophenyl)-5-[4-(methylthio)phenyl]pyrazole-3-carbonitrile]
per cent inhibition of DTH response compared with vehicle control ([4]; 0.32 mg/kg): 55.4%
per cent inhibition of DTH response compared with vehicle control ([4]; 1.0 mg/kg): 70.9%
per cent inhibition of DTH response compared with vehicle control ([4]; 3.2 mg/kg): 69.6%
